Results: patent US8703917B2, “Epidermal growth factor receptor variants and pharmaceutical compositions thereof” (Shanghai Cancer Institute, priority 2010, dated 2014)

How the values were obtained:
U87MG EGFRvA = test: Cell growth suppression assay (CCK-8) using small molecular inhibitors against EGFR; type: cell-based, human
Procedure: (§1) Methods: cells in the log-phase growth were plated in 96-well plates with 3000 cells/well. […] The medium were replaced with fresh medium containing 10% CCK-8 reagents and incubated for another 2 h. The OD450 value was then measured.

U87MG EGFRwt = test: as above; type: cell-based, human; conditions: U87MG EGFRwt cells, 72 h with inhibitor, CCK-8 OD450
Procedure: as §1

Structure (SMILES)	IC50 (U87MG EGFRvA; U87MG EGFRvA cells, 72 h with inhibitor, CCK-8 OD450) [nM]	IC50 ratio (EGFRvA/EGFRwt) (U87MG EGFRvA; U87MG EGFRvA versus U87MG EGFRwt)	IC50 (U87MG EGFRwt) [nM]	sensitivity of cell line stably expressing EGFRvA compared with cell line stably expressing EGFR (U87MG EGFRvA; FIG. 7)
COc1cc2ncnc(Nc3cccc(Cl)c3)c2cc1OC [AG1478]	4060	4.56	890	
C#Cc1cccc(Nc2ncnc3cc(OCCOC)c(OCCOC)cc23)c1 [Erlotinib]				lower sensitivity
